According to patent publication US20210177892A1, “PREVENTION AND TREATMENT OF INFECTIOUS DISEASE USING LOW CONCENTRATION HYPOCHLOROUS ACID SOLUTIONS” (Wonder Spray, LLC, priority 2019, published 2021):

Columns and labels:
[1] = tested on: Streptococcus pneumoniae ATCC 49619; assay: Kill Time Study, Streptococcus pneumoniae; format: cell-based; conditions: FIG. 3
Description: (§1) For example, FIG. 3 and FIG. 4 illustrate tables of the effect of a solution of HOCl on Streptococcus pneumoniae and Streptococcus pyogenes, respectively. The organisms in this test were prepared by inoculating the surface of about 5% Sheep blood agar plates, incubated at about 30 to 35° C. for 18 to 24 hours. Following the incubation period, the plates were washed with sterile Serological Saline Solution to harvest the microorganisms used and dilutions with Saline were made, plated on blood agar and incubated at 30 to 35° C. for 24-48 hours to determine the concentration. The inoculum level was then adjusted to […] for use as a stock suspension. Stock suspensions were well mixed and homogenized at each inoculation interval.
(§2) Positive controls were performed at initiation and completion by spread plating to enumerate inoculum levels and verify culture purity during testing and Negative controls were performed to establish sterility of media, reagents, and materials used at initiation. Neutralizer Suitability using Modified Letheen Broth (MLB) was performed concurrently with Kill Time testing to confirm the recovery of <100 CFU of the test organism in the subculture media in the presence of product. Duplicate 10 ml containers for each treated specimen or material concentration was prepared, equilibrated to 25±2° C., and 0.1 ml of inoculum is added to each container to achieve a final concentration of 10^6 cfu/ml.
(§3) Serial dilutions from each replicate were made at intervals of 15 second, 30 second, 1 minute and 5 minutes using 1 ml of the inoculated test product into 9 ml MLB from 1:10 to 1:1000000. Subsequently, 1 ml from each dilution was spread plated on 5% Sheep Blood agar plate in duplicate, incubated at 30 to 35° C. for 48 hours. After the incubation period, all plates were counted to determine the number of microorganisms, results are averaged and reported as log 10 reductions.

[2] = tested on: Streptococcus pyogenes ATCC 49399; assay: Kill Time Study, Streptococcus pyogenes; format: cell-based; conditions: FIG. 4
Description: as §1, §2, §3

E. coli = conditions: 50 mM (2.6 ppm), within 5 minutes; cited from earlier work
f2 RNA = conditions: cited from earlier work
[3] = inhalation; cited from earlier work

SMILES: OCl [HOCl, Hypochlorous acid]
- time in which bacteria that cause pneumonia are effectively killed [1]: less than 15 seconds
- cfu/ml of Streptococcus pneumoniae after the HOCl solution was applied ([1]; after fifteen seconds): less than 10 cfu/ml
- log 10 reduction for Streptococcus pneumoniae ([1]; after fifteen seconds): 6.057 log 10
- percent reduction for Streptococcus pneumoniae ([1]; after fifteen seconds): 99.99%
- time in which bacteria that cause strep throat are effectively killed [2]: less than 15 seconds
- cfu/ml of Streptococcus pyogenes after the HOCl solution was applied ([2]; after fifteen seconds): less than 10 cfu/ml
- log 10 reduction for Streptococcus pyogenes ([2]; after fifteen seconds): 6.086 log 10
- percent reduction for Streptococcus pyogenes ([2]; after fifteen seconds): 99.99%
- inhibition of DNA synthesis in E. coli (E. coli): ninety-six
- inhibition of the growth of E. coli (E. coli): completely inhibited the growth
- inactivation of naked f2 RNA compared with RNA in intact phage (f2 RNA): inactivated naked f2 RNA at the same rate as RNA in intact phage
- adverse effects of inhaling the aerosolized form [3]: no adverse effects
